Laboratory results published in ChEMBL document CHEMBL2202954, “The effect of PLC-γ2 inhibitors on the growth of human tumour cells” (2012).

Legend:
Type in all cases: functional
MDA-MB-231 = experiment: Cytotoxicity against human MDA-MB-231 cells assessed as cellular growth at 10 uM by SRB assay
DU-145 = experiment: Cytotoxicity against human DU145 cells assessed as cellular growth at 10 uM by SRB assay
SN12C = experiment: Cytotoxicity against human SN12C cells assessed as cellular growth at 10 uM by SRB assay
CAKI-1 = experiment: Cytotoxicity against human Caki1 cells assessed as cellular growth at 10 uM by SRB assay
A498 = experiment: Cytotoxicity against human A498 cells assessed as cellular growth at 10 uM by SRB assay
OVCAR-4 = experiment: Cytotoxicity against human OVCAR4 cells assessed as cellular growth at 10 uM by SRB assay
OVCAR-5 = experiment: Cytotoxicity against human OVCAR5 cells assessed as cellular growth at 10 uM by SRB assay
IGROV-1 = experiment: Cytotoxicity against human IGROV1 cells assessed as cellular growth at 10 uM by SRB assay
UACC-62 = experiment: Cytotoxicity against human UACC62 cells assessed as cellular growth at 10 uM by SRB assay
SK-MEL-2 = experiment: Cytotoxicity against human SK-MEL-2 cells assessed as cellular growth at 10 uM by SRB assay
MDA-MB-435 = experiment: Cytotoxicity against human MDA-MB-435 cells assessed as cellular growth at 10 uM by SRB assay
Malme-3M = experiment: Cytotoxicity against human MALME-3M cells assessed as cellular growth at 10 uM by SRB assay
SF-295 = experiment: Cytotoxicity against human SF295 cells assessed as cellular growth at 10 uM by SRB assay
HT-29 = experiment: Cytotoxicity against human HT-29 cells assessed as cellular growth at 10 uM by SRB assay
COLO 205 = experiment: Cytotoxicity against human COLO205 cells assessed as cellular growth at 10 uM by SRB assay
HOP-92 = experiment: Cytotoxicity against human HOP92 cells assessed as cellular growth at 10 uM by SRB assay
EKVX = experiment: Cytotoxicity against human EKVX cells assessed as cellular growth at 10 uM by SRB assay
SR = experiment: Cytotoxicity against human SR cells assessed as cellular growth at 10 uM by SRB assay
MOLT-4 = experiment: Cytotoxicity against human MOLT4 cells assessed as cellular growth at 10 uM by SRB assay
HL-60(TB) = experiment: Cytotoxicity against human HL-60(TB) cells assessed as cellular growth at 10 uM by SRB assay

CC1(C)CC(=O)c2cc3c(N)c(C(=O)NCc4ccccc4)sc3nc2C1
Activity (MDA-MB-231): 101.13% | Activity (DU-145): 113.73% | Activity (SN12C): 98.59% | Activity (CAKI-1): 110.35% | Activity (A498): 89.05% | Activity (OVCAR-4): 78.52% | Activity (OVCAR-5): 108.53% | Activity (IGROV-1): 107.02% | Activity (UACC-62): 102.76% | Activity (SK-MEL-2): 114.95% | Activity (MDA-MB-435): 91.3% | Activity (Malme-3M): 104.51% | Activity (SF-295): 100.81% | Activity (HT-29): 106.09% | Activity (COLO 205): 128.9% | Activity (HOP-92): 60.17% | Activity (EKVX): 108.91% | Activity (SR): 116.5% | Activity (MOLT-4): 124.23% | Activity (HL-60(TB)): 120.86%
